We go through two compounds from patent US4762852A, “Benzodioxepanne, process for the synthesis thereof and use thereof” (Societe d'Etudes Scientifiques et Industrielles de l'Ile de …, priority 1985, dated 1988).

Read-outs that look alike come from different tables or passages of the source.

Data set [1] has as its system stereotypies caused in rats by apomorphine. As to the kind of experiment: antagonism of stereotypies caused in rats by 0.5 mg/kg subcutaneous apomorphine (Europ. J. Pharmacol., 50, 291-300, 1978). It counts as in vivo. The settings on record: rat. Here is the method:
(2) The compound of the invention was a powerful anti-dopaminergic agent at the level of the central nervous system. Indeed, in the test in respect of stereotypies caused in rats by apomorphine, a dopaminergic agonistic agent, the compound antogonized that behavioral response at very low levels. Thus, when stereotypies were caused by 0.5 mg/kg of subcutaneous apomorphine, the inhibitor-50 dose of the compound was 0.52 mg/kg intraperitoneally. This test was conducted in accordance with the procedure in Europ. J. Pharmacol., 50, pp. 291-300 (1978). […] The reference compound is disclosed in U.S. Pat. Nos. 4,186,135 (Example 43) and 4,248,885. In another test, the inhibitor doses 50 of the compound were evaluated according to Europ. J. Pharm. 50, pp. 291-300 (1978), the compound being administered at different times (15, 30, 60, 120 and 360 minutes) prior to administration of the agonistic agent, in this case apomorphine, in a dose of 0.5 mg/kg subcutaneous. It is thus possible to judge the power of the antagonism produced by the compound at those different times and also to evaluate the duration of the effect of the compound. […] Catalepsy appeared in fact, 11 minutes after subcutaneous injection of the compound and lasted for more than 5 hours and up to 12 hours in a rat, depending on the method of observation of the phenomenon.

Data set [2] shares this test system. The experiment in a line: antagonism of stereotypies caused by 1.25 mg/kg intravenous apomorphine (Arzn. Forsch. 10, 1003-1005, 1960). It counts as in vivo. Particulars: compound subcutaneous, apomorphine 1.25 mg/kg intravenous; for ED50: Rattus norvegicus, sc, read-out: ID50, apomorphine stereotypies. The source says: (2) The compound of the invention was a powerful anti-dopaminergic agent at the level of the central nervous system. Indeed, in the test in respect of stereotypies caused in rats by apomorphine, a dopaminergic agonistic agent, the compound antogonized that behavioral response at very low levels. […] […] […] The reference compound is disclosed in U.S. Pat. Nos. 4,186,135 (Example 43) and 4,248,885.

The subject of data set [3] is stereotypies caused in a rat by amphetamine. As to the kind of experiment: antagonism of stereotypies caused in a rat by amphetamine, 10 mg/kg intravenous (Arz. Forsch. 11, 932-938, 1961). Particulars: sc. The format is in vivo.
Data set [4] has as its system rat. The experiment in a line: cataleptigenic effect (Arz. Forsch. 12, 964-968, 1962). It counts as in vivo. The settings on record: sc, subcutaneous. Here is the method:
(§1) The cataleptigenic dose 50, as determined in accordance with Arz. Forsch. 12, pp. 964-968 (1962), was 5.3 mg/kg subcutaneously in a rat. Another test gave a value which was slightly higher, 8.5 mg/kg subcutaneous, also in a rat.

Data set [5] addresses dopaminergic D2 receptors (Homo sapiens, UniProt P14416). As to the kind of experiment: in-vitro binding to dopaminergic D2 receptors, ligand 3H-spiperone. Particulars: read-out: IC50, D2 receptor binding. An excerpt: (1) The compound bound very strongly in-vitro to dopaminergic D2 receptors.
Data set [6] addresses D1 receptor (Homo sapiens, UniProt P21728). The experiment in a line: in-vitro binding to D1 receptor against 3H-piflutixol. Particulars: second of two values.
The nature of data set [7]: partition coefficient. It counts as physicochemical.
Data set [8] is described as follows: solubility. It counts as physicochemical.
Data set [9] relates to stereotypies in relation to amphetamine in a rat. The experiment in a line: antagonism of amphetamine stereotypies in a rat, amphetamine injected intraperitoneally. It counts as in vivo. The settings on record: read-out: ID50, amphetamine stereotypies.
In data set [10] the test system is rat. As to the kind of experiment: cataleptigenic effect, another test. It counts as in vivo. The settings on record: sc, subcutaneous, read-out: cataleptigenic dose 50. On the procedure:
as §1

Data set [11] deals with rat. As to the kind of experiment: kinetics of the cataleptigenic effect. It counts as in vivo. The settings on record: after subcutaneous injection. Here is the method:
In another test, the inhibitor doses 50 of the compound were evaluated according to Europ. J. Pharm. 50, pp. 291-300 (1978), the compound being administered at different times (15, 30, 60, 120 and 360 minutes) prior to administration of the agonistic agent, in this case apomorphine, in a dose of 0.5 mg/kg subcutaneous. It is thus possible to judge the power of the antagonism produced by the compound at those different times and also to evaluate the duration of the effect of the compound. […] Catalepsy appeared in fact, 11 minutes after subcutaneous injection of the compound and lasted for more than 5 hours and up to 12 hours in a rat, depending on the method of observation of the phenomenon.

Data set [12] has as its system spontaneous motility of a mouse. As to the kind of experiment: reduction of spontaneous motility of a mouse, photoelectric method (J. Pharm. Exp. Ther. 101, 156-162, 1951). It counts as in vivo. Particulars: intraperitoneal; for ED50: ip. On the procedure:
(§2) Exp. Ther. 101, pp. 156-162 (1951).
The kinetics of the inhibitor effect of the compound were studied in mice by evaluation of the inhibitor doses 50 at different distances from intraperitoneal injection of the compound. The procedure used was the photoelectric method described in J. Pharm. Exp. Ther. 101, pp. 156-162 (1951). […] Then, the variation in the ID50 between 0.55 and 0.9 indicated persistence of the effect up to 5 hours. The effect then became less clear, but could still be observed more than 5 hours after administration, which is in accordance with the duration attributed to the cataleptigenic effect.

For data set [13] the test system is unchanged. As to the kind of experiment: reduction of spontaneous motility of a mouse, Activograph Method. It counts as in vivo. The settings on record: ip, intraperitoneal, read-out: ID50, reduction of spontaneous motility.
Source text: as §2

The subject of data set [14] is vigilance. The experiment in a line: vigilance of treated animals at higher neuroleptic doses. The format is in vivo. The settings on record: higher neuroleptic doses which reduce motor function. On the procedure: The compound of the invention has the pharmacological characteristics of a powerful neuroleptic, acting rapidly and in a long-term fashion, and, consequently, can be applied in states of agitation of acute and chronic psychoses. For this and other purposes the daily therapeutic dosage can be from about 5 to 50 mg/day in one or more doses, depending upon the severity of the psychoses. The compound of the invention can be administered in any number of conventional forms such as capsules, tablets, pills, in granulated form or as an injectable solution. Many methods for compounding these preparations are well-known to the art. Substances (or carriers) which are inert relative to the compounds of the invention can be used in these preparations, such as lactose, magnesium stearate, starch, talc, cellulose, levilite, alkali metal lauryl-sulphates, saccharose and other vehicles and carriers commonly employed in pharamaceutical preparations. The examples which follow illustrate several possible pharmaceutical preparations.

Setting [15] is: ip, compound intraperitoneal, apomorphine 0.5 mg/kg subcutaneous, read-out: inhibitor-50 dose (ID50), apomorphine stereotypies.

Sequence of dopaminergic D2 receptors (P14416 whole entry): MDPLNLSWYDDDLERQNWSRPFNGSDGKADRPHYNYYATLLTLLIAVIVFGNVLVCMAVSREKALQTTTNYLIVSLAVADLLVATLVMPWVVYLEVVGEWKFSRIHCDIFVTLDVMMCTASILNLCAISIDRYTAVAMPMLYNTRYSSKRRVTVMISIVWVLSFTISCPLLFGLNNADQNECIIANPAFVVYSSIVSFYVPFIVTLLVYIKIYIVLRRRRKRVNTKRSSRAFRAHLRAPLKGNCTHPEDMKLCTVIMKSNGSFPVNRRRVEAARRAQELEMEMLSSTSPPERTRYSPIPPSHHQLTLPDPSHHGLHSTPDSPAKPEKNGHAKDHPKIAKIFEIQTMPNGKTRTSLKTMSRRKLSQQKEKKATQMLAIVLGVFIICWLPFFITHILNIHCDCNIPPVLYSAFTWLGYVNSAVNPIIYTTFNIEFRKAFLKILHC
Sequence of D1 receptor (P21728 whole entry): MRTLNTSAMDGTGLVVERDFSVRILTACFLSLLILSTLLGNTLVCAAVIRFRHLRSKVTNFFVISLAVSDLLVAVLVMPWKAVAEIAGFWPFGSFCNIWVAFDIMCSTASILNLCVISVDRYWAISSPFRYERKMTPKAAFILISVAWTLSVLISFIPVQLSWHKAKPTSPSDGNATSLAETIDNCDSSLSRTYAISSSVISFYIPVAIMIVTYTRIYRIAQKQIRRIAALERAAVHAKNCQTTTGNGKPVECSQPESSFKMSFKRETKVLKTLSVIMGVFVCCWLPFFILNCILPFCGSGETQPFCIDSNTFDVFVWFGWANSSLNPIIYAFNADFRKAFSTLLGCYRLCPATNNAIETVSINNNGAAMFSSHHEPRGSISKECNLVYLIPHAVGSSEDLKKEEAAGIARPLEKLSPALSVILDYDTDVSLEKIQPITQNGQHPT

For `CCN1CCCC1CNC(=O)c1cc(S(=O)(=O)CC)cc2c1OCCCO2` (stereo not shown) [reference compound, N-(1-ethyl-2-pyrrolidinylmethyl) 8-ethylsulphonyl-1,5-benzodioxepanne-6-carboxamide, reference compound], the ED50 is 36.4 mg/kg in data set [1] (setting [15]); 156 mg/kg in data set [2]; 39.4 mg/kg in data set [3] (Rattus norvegicus, subcutaneous, amphetamine route and dose not stated, read-out: ID50, amphetamine); 59.5 mg/kg in data set [4] (Rattus norvegicus, which of the two catalepsy tests is not stated, read-out: ED50, cataleptigenic effect).

As to `CCS(=O)(=O)c1cc2c(c(C(=O)NCC3CCCN3CC3=CCCCC3)c1)OCCCO2` (stereo not shown) [compound of the invention, N-(1-cyclohexenylmethyl-2 pyrrolidylmethyl)-8-ethylsulphonyl-1,5-benzodioxepanne 6-carboxamide], the IC50 came out at 0.00316 µM in data set [5] and 63.1 µM in data set [6]. In data set [7], this compound showed a logP of 0.519. The “solubility in dilute acids” value in data set [8] (dilute acids) is given as “Soluble”. In [8] (ethyl acetate, cold), the “solubility in cold ethyl acetate” value was “soluble when cold in 30 volumes”. In addition, in data set [8] (hot ethyl acetate (2 volumes)), the “solubility in hot ethyl acetate” value is recorded as “Highly soluble”. Besides, in data set [8] (hot methanol (2 volumes)), the “solubility in hot methanol” value is “Highly soluble”. Also, the “solubility in cold methanol” value in data set [8] (methanol, cold) is listed as “very weakly soluble”. Besides, the ED50 in data set [1] (setting [15]) worked out at 0.52 mg/kg; in [1] (sc, 0.25 h, compound subcutaneous 15 minutes before apomorphine 0.5 mg/kg subcutaneous, read-out: ID50, apomorphine stereotypies, 15 minutes after injection) it was 0.066 mg/kg; in data set [1] (sc, compound subcutaneous, apomorphine 0.5 mg/kg subcutaneous, read-out: ID50, apomorphine stereotypies), 0.039 mg/kg; in data set [2], 0.092 mg/kg; in data set [3] (rat, compound subcutaneous, amphetamine 10 mg/kg intravenous, read-out: inhibitor dose 50 (ID50), amphetamine stereotypies), 0.062 mg/kg; in data set [9] (ip, amphetamine intraperitoneal, other experimental conditions), 0.4 mg/kg. For the same compound, the ED50 in data set [9] (sc, compound subcutaneous, action already found at the 12th minute) is 0.4 mg/kg; in data set [4] (rat, read-out: cataleptigenic dose 50), 5.3 mg/kg; in [10], 8.5 mg/kg; in data set [12] (5 min, 5 minutes after injection, read-out: ID50, reduction of motility after 5 minutes), 0.69 mg/kg; in [12] (photoelectric method, read-out: ID50, reduction of spontaneous motility), 0.58 mg/kg; in [13], 0.93 mg/kg. For the same compound, the “ID50, apomorphine stereotypies” value in data set [2] (rat) is 0.082 mg/kg. Besides, the “time to appearance of catalepsy” value in data set [11] turned out to be 11 min. For the same compound, in data set [12], the “time after administration at which inhibitor effect on motility could still be observed” value is given as “more than 5 hours”. The “vigilance at higher neuroleptic doses” value in data set [14] is given as “retain a certain degree of vigilance”.
